Target: T1, DCAMKL2 (DCK2) (Homo sapiens, UniProt Q8N568)
T1 construct: purchased Thermo Fisher Scientific (Life Technologies) SelectScreen
Experiment: SelectScreen Z'LYTE
Assay type: biochemical
Summary of the method: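 SelectScreen broad panel; activity (Z'LYTE, Adapta) plus binding formats. ATP: Km app for CSF1R Z'LYTE; 10 for CAMK1 Adapta. Readout = % per kinase.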

T1 sequence (Q8N568 whole entry): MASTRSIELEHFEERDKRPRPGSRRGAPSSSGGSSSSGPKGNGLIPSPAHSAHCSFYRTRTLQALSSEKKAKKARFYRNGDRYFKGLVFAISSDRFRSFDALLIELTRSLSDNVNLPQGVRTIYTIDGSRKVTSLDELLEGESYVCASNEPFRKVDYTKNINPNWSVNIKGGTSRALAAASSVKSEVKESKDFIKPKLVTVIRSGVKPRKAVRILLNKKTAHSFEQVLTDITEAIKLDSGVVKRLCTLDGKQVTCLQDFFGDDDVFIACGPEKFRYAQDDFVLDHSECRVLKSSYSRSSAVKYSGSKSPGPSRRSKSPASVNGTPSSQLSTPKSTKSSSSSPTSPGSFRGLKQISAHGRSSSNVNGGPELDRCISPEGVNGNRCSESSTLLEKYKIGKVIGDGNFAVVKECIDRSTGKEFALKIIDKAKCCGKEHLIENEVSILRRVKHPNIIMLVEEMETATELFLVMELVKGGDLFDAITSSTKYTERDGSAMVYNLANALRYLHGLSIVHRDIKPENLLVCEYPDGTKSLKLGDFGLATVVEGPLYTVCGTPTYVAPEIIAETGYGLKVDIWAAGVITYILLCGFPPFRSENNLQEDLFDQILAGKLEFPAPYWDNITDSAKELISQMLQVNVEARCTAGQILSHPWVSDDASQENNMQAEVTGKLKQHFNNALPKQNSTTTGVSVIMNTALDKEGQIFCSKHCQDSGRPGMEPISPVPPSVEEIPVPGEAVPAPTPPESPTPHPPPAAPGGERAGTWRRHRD

Structure (SMILES): CN(C(=O)CN1CCOCC1)c1ccc2sc3c(-c4cccc5c(=O)cc(N6CC7CCC(C6)O7)oc45)cccc3c2c1 [NU5455]
- inhibition at 1 µM: 1.5%
